We go through 2 molecules from ChEMBL document CHEMBL4613250, “Discovery of 4-((2S,4S)-4-Ethoxy-1-((5-methoxy-7-methyl-1H-indol-4-yl)methyl)piperidin-2-yl)benzoic Acid (LNP023), a Factor B Inhibitor Specifically Designed To Be Applicable to Treating a Diverse Array of Complement Mediated Diseases” (J Med Chem, 2020).

Series [1] can be described thus: Clearance in Wistar Han rat at 1 mg/kg, iv after 0.5 to 24 hrs by HPLC-MS/MS analysis. It is filed as ADME, organism-based. Particulars: in vivo.
Series [2] is described as follows: Volume of distribution at steady state in Wistar Han rat at 1 mg/kg, iv after 0.5 to 24 hrs by HPLC-MS/MS analysis. Particulars: in vivo, read-out: Vdss. The format is ADME, organism-based.
Series [3] in a line: Half life in Wistar Han rat at 1 mg/kg, iv after 0.5 to 24 hrs by HPLC-MS/MS analysis. The format is ADME, organism-based. The note with it: in vivo.
Series [4] can be described thus: Mean residence time in Wistar Han rat at 1 mg/kg, iv after 0.5 to 24 hrs by HPLC-MS/MS analysis. The format is ADME, organism-based. Particulars: in vivo.
Series [5] in a line: AUC/dose in Wistar Han rat at 1 mg/kg, iv after 0.5 to 24 hrs by HPLC-MS/MS analysis. The note with it: in vivo. It is filed as ADME, organism-based.
The nature of series [6]: AUC/dose in Wistar Han rat at 30 mg/kg, po after 0.5 to 24 hrs by HPLC-MS/MS analysis. The format is ADME, organism-based. The note with it: in vivo.
Series [7] in a line: Oral bioavailability in Wistar Han rat at 30 mg/kg after 0.5 to 24 hrs by HPLC-MS/MS analysis. It is filed as ADME, organism-based. The note with it: in vivo.
Series [8] in a line: Cmax/dose in Wistar Han rat at 30 mg/kg, po after 0.5 to 24 hrs by HPLC-MS/MS analysis. The format is ADME, organism-based. Particulars: in vivo.
Series [9] can be described thus: Tmax in Wistar Han rat at 30 mg/kg, po after 0.5 to 24 hrs by HPLC-MS/MS analysis. It is filed as ADME, organism-based. Particulars: in vivo.
Series [10] is described as follows: Clearance in beagle dog at 0.1 mg/kg, iv after 15 mins to 24 hrs by HPLC-MS/MS analysis. The note with it: in vivo. It is filed as ADME, organism-based, Canis lupus familiaris.
Series [11] is described as follows: Volume of distribution at steady state in beagle dog at 0.1 mg/kg, iv after 15 mins to 24 hrs by HPLC-MS/MS analysis. It is filed as ADME, organism-based, Canis lupus familiaris. Particulars: in vivo, read-out: Vdss.
Series [12] is described as follows: Half life in beagle dog at 0.1 mg/kg, iv after 15 mins to 24 hrs by HPLC-MS/MS analysis. The format is ADME, organism-based, Canis lupus familiaris. Particulars: in vivo.
Series [13] can be described thus: Mean residence time in beagle dog at 0.1 mg/kg, iv after 15 mins to 24 hrs by HPLC-MS/MS analysis. The note with it: in vivo. The format is ADME, organism-based, Canis lupus familiaris.
Series [14] is described as follows: AUC/dose in beagle dog at 0.1 mg/kg, iv after 15 mins to 24 hrs by HPLC-MS/MS analysis. It is filed as ADME, organism-based, Canis lupus familiaris. Particulars: in vivo.
Series [15] is described as follows: AUC/dose in beagle dog at 10 mg/kg, po after 15 mins to 24 hrs by HPLC-MS/MS analysis. It is filed as ADME, organism-based, Canis lupus familiaris. The note with it: in vivo.
A short description of series [16]: Oral bioavailability in beagle dog at 10 mg/kg after 15 mins to 24 hrs by HPLC-MS/MS analysis. It is filed as ADME, organism-based, Canis lupus familiaris. Particulars: in vivo.
The nature of series [17]: Cmax/dose in beagle dog at 10 mg/kg, po after 15 mins to 24 hrs by HPLC-MS/MS analysis. The format is ADME, organism-based, Canis lupus familiaris. Particulars: in vivo.
A short description of series [18]: Tmax in beagle dog at 10 mg/kg, po after 15 mins to 24 hrs by HPLC-MS/MS analysis. The note with it: in vivo. The format is ADME, organism-based, Canis lupus familiaris.
For series [19], the species on record is Canis familiaris. As to the kind of experiment: animal or person. The note with it: Canis lupus familiaris, beagle, po, 6 h, read-out: INH.
The species named for series [20] is Canis familiaris. As to the kind of experiment: animal or person. Particulars: Canis lupus familiaris, beagle, po, 12 h, read-out: INH.
The target in the next series is Complement factor B (Mus musculus, UniProt P04186). As to the kind of experiment: Inhibition of serine protease factor B in 50% mouse serum assessed as reduction in C3b deposition pre-incubated for 15 mins before activated zymosan A stimulation for 50 mins by ELISA. It is filed as cell-free. On the technique in general: An ELISA detects its analyte on a solid surface through an enzyme-linked reagent.

Series [21] can be described thus: Volume of distribution at steady state in C57BL/6 mouse at 1 mg/kg, iv after 5 mins to 7 hrs by HPLC-MS/MS analysis. The format is ADME, organism-based. Particulars: mouse, in vivo.
A short description of series [22]: Half life in C57BL/6 mouse at 1 mg/kg, iv after 5 mins to 7 hrs by HPLC-MS/MS analysis. The note with it: mouse, in vivo. It is filed as ADME, organism-based.
Series [23] can be described thus: Mean residence time in C57BL/6 mouse at 1 mg/kg, iv after 5 mins to 7 hrs by HPLC-MS/MS analysis. It is filed as ADME, organism-based. The note with it: mouse, in vivo.
Series [24] is described as follows: AUC (0 to last) in C57BL/6 mouse at 10 mg/kg, po after 7 hrs by HPLC-MS/MS analysis. It is filed as ADME, organism-based. More on the design: dose 10 mg/kg, time 0 - last, route oral. The note with it: C57BL/6, mouse, in vivo.
The nature of series [25]: Oral bioavailability in C57BL/6 mouse at 10 mg/kg after 5 mins to 7 hrs by HPLC-MS/MS analysis. It is filed as ADME, organism-based. Particulars: C57BL/6, mouse, in vivo.
Series [26] is described as follows: Protein binding in mouse plasma at 5 uM. The format is ADME, cell-free. Particulars: read-out: PPB.
The nature of series [27]: Protein binding in rat plasma at 5 uM. It is filed as ADME, cell-free. Particulars: read-out: PPB.
Series [28] can be described thus: Protein binding in dog plasma at 5 uM. The format is ADME, cell-free, Canis lupus familiaris. The note with it: read-out: PPB.
Series [29] is described as follows: Protein binding in human plasma at 5 uM. Particulars: read-out: PPB. The format is ADME, cell-free.
A short description of series [30]: AUC (0 to last) in brown Norway rat posterior eye cup at 10 mg/kg, po administered as single dose measured after 0.25 to 24 hrs by HPLC-MS/MS analysis. It is filed as ADME, organism-based.
The nature of series [31]: Cmax in brown Norway rat posterior eye cup at 10 mg/kg, po administered as single dose measured after 0.25 to 24 hrs by HPLC-MS/MS analysis. The format is ADME, organism-based.
Series [32] is described as follows: AUC (0 to last) in brown Norway rat retina at 10 mg/kg, po administered as single dose measured after 0.25 to 24 hrs by HPLC-MS/MS analysis. It is filed as ADME, organism-based. Also on record: dose 10 mg/kg, route oral, time 0 - last.
Series [33] is described as follows: Cmax in brown Norway rat retina at 10 mg/kg, po administered as single dose measured after 0.25 to 24 hrs by HPLC-MS/MS analysis. It is filed as ADME, organism-based. Also on record: dose 10 mg/kg, route oral.
Series [34] in a line: AUC (0 to last) in brown Norway rat plasma at 10 mg/kg, po administered as single dose measured after 0.25 to 24 hrs by HPLC-MS/MS analysis. The format is ADME, organism-based. Also on record: dose 10 mg/kg, time 0 - last, route oral.
The nature of series [35]: Cmax in brown Norway rat plasma at 10 mg/kg, po administered as single dose measured after 0.25 to 24 hrs by HPLC-MS/MS analysis. The format is ADME, organism-based. More on the design: dose 10 mg/kg, route oral.
The species named for series [36] is Mus musculus. The experiment in a line: animal or person. Particulars: C57BL/6, po, 8 h, read-out: INH.
For series [37], the species on record is Mus musculus. As to the kind of experiment: animal or person. The note with it: C57BL/6, po, 8 h, read-out: INH. The source holds these as a separate data set.
The species named for series [38] is Mus musculus. The experiment in a line: animal or person. The note with it: C57BL/6, po, 4 h, read-out: INH.
The species named for series [39] is Mus musculus. As to the kind of experiment: animal or person. The note with it: C57BL/6, po, 4 h, read-out: INH. This is another data set of the same source.
The species named for series [40] is Mus musculus. As to the kind of experiment: animal or person. The note with it: C57BL/6, po, 4 h, read-out: INH. This is another data set of the same source.
The species entered for series [41] is Mus musculus. The experiment in a line: animal or person. The note with it: C57BL/6, po, 4 h, read-out: INH. This is another data set of the same source.
Series [42] is filed under the species Mus musculus. The experiment in a line: animal or person. Particulars: C57BL/6, po, 4 h, read-out: INH. This is another data set of the same source.
Series [43] is filed under the species Mus musculus. As to the kind of experiment: animal or person. The note with it: C57BL/6, po, 4 h, read-out: INH. This is another data set of the same source.

Complement factor B, sequence (P04186 whole entry): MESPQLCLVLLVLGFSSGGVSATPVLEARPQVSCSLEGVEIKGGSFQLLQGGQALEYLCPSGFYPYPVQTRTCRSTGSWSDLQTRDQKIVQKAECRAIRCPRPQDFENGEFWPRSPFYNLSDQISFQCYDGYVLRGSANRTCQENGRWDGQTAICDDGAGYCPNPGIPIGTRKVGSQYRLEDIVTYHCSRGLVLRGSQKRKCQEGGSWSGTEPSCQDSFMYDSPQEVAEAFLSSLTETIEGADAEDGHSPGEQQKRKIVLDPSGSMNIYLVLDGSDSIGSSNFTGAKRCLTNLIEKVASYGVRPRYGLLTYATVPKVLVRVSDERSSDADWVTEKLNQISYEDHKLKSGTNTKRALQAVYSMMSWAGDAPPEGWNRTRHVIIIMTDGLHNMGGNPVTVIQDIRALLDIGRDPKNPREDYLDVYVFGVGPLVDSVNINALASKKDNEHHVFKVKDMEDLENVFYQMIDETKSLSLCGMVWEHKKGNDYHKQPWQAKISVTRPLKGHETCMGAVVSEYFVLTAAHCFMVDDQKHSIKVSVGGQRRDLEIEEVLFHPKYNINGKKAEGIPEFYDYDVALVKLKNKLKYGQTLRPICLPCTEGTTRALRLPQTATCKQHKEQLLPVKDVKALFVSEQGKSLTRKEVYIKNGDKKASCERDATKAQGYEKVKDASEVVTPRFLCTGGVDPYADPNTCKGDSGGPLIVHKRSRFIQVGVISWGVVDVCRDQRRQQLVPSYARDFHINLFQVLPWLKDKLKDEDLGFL

Broadly, the clearance is a measure of how efficiently the substance is removed, as volume per time. Read a low clearance as inefficient removal. In general, half-life refers to the time in which the quantity being followed falls by half. Read a high half-life as slow loss. One may read the MRT as the average time that molecules of a dose stay in the body. As usually defined, the bioavailability is dose-corrected exposure relative to a reference, in per cent. Read a low bioavailability as poor availability. By Tmax is commonly meant the time from dosing to the highest level. As for `CCO[C@H]1CCN(Cc2c(OC)cc(C)c3[nH]ccc23)[C@H](c2ccc(C(=O)O)cc2)C1.Cl`, the clearance in [1] is 8 mL/min/kg; in series [10] it was 2 mL/min/kg. Besides, the results for the Vd in series [2] and in series [11] were 2.3 L/kg and 0.6 L/kg, respectively. Moreover, the half-life was 7 h in series [3] and 5.6 h in series [12]. The figures for the MRT in series [4] and in series [13] were 3.4 h and 5.5 h, respectively. The AUC/dose in series [5] came to 5200 nM·h; in [6], 2100 nM·h; in [14], 21000 nM·h; in series [15], 12700 nM·h. Further, the bioavailability in series [7] amounted to 40%; in series [16] it was 60%. Moreover, the Cmax/dose in [8] turned out to be 410 nM; in series [17], 2200 nM. Further, the Tmax was 2 h in series [9] and 0.8 h in series [18]. The inhibition in vivo at 3 mg/kg stood at 100% in the series filed under Canis familiaris [19] and 55% in the series filed under Canis familiaris [20].

The IC50 is the concentration at which inhibition is half-maximal. The Vdss is a proportionality between amount in the body and measured concentration, not a real space. Higher therefore signals extensive tissue distribution. Broadly, the AUC(0-t) is exposure summed from dosing to a finite time, without extrapolation to infinity. The term Cmax denotes the peak of the concentration-time curve. As for `CCO[C@H]1CCN(Cc2c(OC)cc(C)c3[nH]ccc23)[C@H](c2ccc(C(=O)O)cc2)C1` [IPTACOPAN], the IC50 on Complement factor B came to 110 nM. Also, in series [21], the Vdss is 6.6 L/kg. The molecule further returned a t1/2 in series [22] of 7.2 h. This molecule also showed a mean residence time (MRT) in series [23] of 1.6 h. In series [24], this molecule had an area under the curve AUC(0-t) at 7 h of 7.6 µM·h. In addition, the bioavailability in series [25] is 46%. For the same molecule, the fraction unbound at 5 µM in [26], in series [27], in series [28] and in series [29] was 0.26 to 0.43 throughout. Also, the results for the AUC(0-t) in series [30], in series [32] and in series [34] were 76.1 µM·h, 1.67 µM·h and 28.6 µM·h, respectively. In addition, the Cmax worked out at 2500 nM in series [31], 150 nM in [33] and 5100 nM in series [35]. Also, the inhibition in vivo at 30 mg/kg in the series listed under Mus musculus [36] was 83%; in the series listed under Mus musculus [37], 83%; in the series listed under Mus musculus [38], 100%; in the series listed under Mus musculus [41], 100%. The inhibition in vivo at 20 mg/kg in the series listed under Mus musculus [39] is 92%; in the series filed under Mus musculus [42] it was 79%. The inhibition in vivo at 10 mg/kg was 72% in the series listed under Mus musculus [40] and 60% in the series filed under Mus musculus [43].
